One may read the IC50 as the concentration at which inhibition is half-maximal.

Consider one compound from publication PMC3615092, “Identification, Design and Bio-Evaluation of Novel Hsp90 Inhibitors by Ligand-Based Virtual Screening” (PLoS ONE, 2013).

The test system of assay [1] is HCT116. As to the kind of experiment: Cell morphological assessment (DAPI staining, apoptosis). Format: cell-based. As to conditions: HCT116, 2, 5, 10 μM, 24 h. The method, then:
(§1) To detect morphological evidence of apoptosis, HCT116, MCF-7 and SKBR3 cell nuclei were visualized following DNA staining with the fluorescent dye DAPI. Briefly, cells were seeded at a concentration of 1×10^5 cells/well in 6-well tissue culture plates and treated with indicated concentration of S13. At the end of incubation, the morphology of cells was monitored under an inverted light microscope. Cells were then fixed with 4% paraform for 20 min and washed with PBS, and then incubated with DAPI (1 μg/ml) for 10 min. After washed with PBS, cells were observed using fluorescent microscopy (Olympus, Japan) with a peak excitation wave length of 340 nm.

Assay [2] deals with MCF-7. The description is as above. Format: cell-based. The protocol: as §1
In assay [3] the test system is SKBR3. The description is as above. Format: cell-based. Particulars: SK-BR3, 2, 5, 10 μM, 24 h. The method, then:
as §1

Assay [4] relates to SK-BR-3. As to the kind of experiment: Anti-proliferation MTT assay. Format: cell-based. Particulars: Homo sapiens, SK-BR-3, 48 h. The protocol:
(§2) Cell viabilities were measured by a colorimetric assay using 3-(4, 5-dimethylthiaz-ol-2-yl)-2,5-diphenyltetrazoliumbromide (MTT, Sigma, Ltd.) as described previously. Experiments were carried out in triplicate in a parallel manner for each concentration of target compounds and the results were presented as mean ± SE. Control cells were given only culture media. After incubation for 48 h, absorbance (A) was measured at 570 nm. Survival ratio (%) was calculated using the following equation: survival ratio (%) = (Atreatment/Acontrol) × 100%.

Assay [5] deals with HCT116. As to the kind of experiment: Anti-proliferation MTT assay. The class given is cell-based. Particulars: Homo sapiens, HCT-116, 48 h. The method, then:
as §2
On the technique in general: Formazan colour is commonly taken as a measure of viable cells.

The subject of assay [6] is HepG2. As to the kind of experiment: Anti-proliferation MTT assay. Format: cell-based. Particulars: Homo sapiens, HepG2, 48 h. The protocol:
as §2

For assay [7], the system named is MCF-7. As to the kind of experiment: Anti-proliferation MTT assay. Particulars: Homo sapiens, MCF7, 48 h. The class given is cell-based. The method, then:
as §2

Assay [8] concerns A549. As to the kind of experiment: Anti-proliferation MTT assay. The class given is cell-based. As to conditions: Homo sapiens, A549, 48 h. The protocol: as §2
Assay [9] concerns MDA-MB-231. As to the kind of experiment: Anti-proliferation MTT assay. The class given is cell-based. Particulars: Homo sapiens, MDA-MB-231, 48 h. The method, then: as §2
The target in assay [10] is T1, Hsp70 (Homo sapiens, UniProt P0DMV8).
T1 construct: purchased Enzo Life science ALX-201-214-C025
As to the kind of experiment: Hsp70 ATPase activity assay (ADP Hunter Plus). The class given is biochemical. The source says: The following materials were used for the biological evaluation: The PET-28a HSP90 expression vector was constructed. The Ni^2+-nitrilo-triacetic acid (NTA) agarose was purchased from General Electric (USA). […] Isopropyl-1-thio-d-galactopyranoside (IPTG) was purchased from Sigma (St. Lousi. MO). Antibodies of β-Actin, Hsp70, Hsp90, c-Raf, Akt, Src, Phospho-Src, ERK and Her-2 were purchased from Cell Signaling Technology (Danvers, MA). Anti-p-Akt(S473) was purchased from Signalway Antibody (Baltimore, MD). HIF-1α antibody was purchased from R&D systems. The stock solution of Hsp90 was prepared in a 20 mM Tris-Cl buffer with a pH 7.4, and concentration was fixed at 5.0 μM. […] The screened out compounds were purchased from SPECS and dissolved in DMSO (Sigma, St. Louis, MO) to make a final concentration of 10^−2 mol/L and were stored at −20°C. […] The water used in the experiments was thrice-distilled and all other materials were of analytical reagent grade.
Hsp70 ATPase activity was measured using Discover RX ADP Hunter^TM Plus Assay kit assay as descripted in the manufacturer's instructions. Breifly, Hsp70 (3 μM) was incubated with 1 mM ATP in 100 mM Tris pH 7.4 at 37°C for 3 h in the presence or absence of various concentrations of test compounds. ADP generation was measured using Varioskan multimode microplate spectrophotometer (540 nm excitation and 620 nm emission). Fluorescence intensity values measured for Hsp70 without any testing compound was assumed as 100% of enzyme activity. The background reaction rate was measured in a reaction lacking enzyme or substrate and subtracted from the experimental rates.

Assay [11] has as its target T2, Hsp90 (Homo sapiens, UniProt P07900).
T2 construct: The region encoding full-length Hsp90 was subcloned into pET28a; inferred from the pET28a vector and Ni-NTA purification; made in house; host or cells: E. coli
As to the kind of experiment: Malachite green assay of Hsp90 ATPase activity. The class given is biochemical. As to conditions: by malachite green assay. The protocol:
The region encoding full-length Hsp90 was subcloned into pET28a. Protein expression in E. coli cells were induced with 0.5 mM IPTG. Cells were harvested after 20h of growth at 16°C and then disrupted by sonication. The soluble lysate was clarified by centrifugation and applied to a Ni^2+-nitrilo-triacetic acid (NTA) agarose column in a buffer (50 mM Tris-Cl, 300 mM NaCl, 10 mM Imidazole, 10% [v/v] Glycerol, 10 mM PMSF, 10 mM DTT). Hsp90 Protein was eluted with a linear gradient of 20–1000 mM imidazole. Hsp90 was identified by SDS-PAGE, and the high concentrated fraction was dialyzed against ATPase buffer (20 mM Tris-Cl, pH 7.5; 6 mM MgCl2; 20 mM KCl) and then aliquoted, frozen in liquid nitrogen, stored at −80°C.
The test compounds were diluted from mother plates (10 mM in 100% (v/v) DMSO) into daughter plates (200 μM in 2.0% (v/v) DMSO); 5 μL of test compound solution was added to each well (equivalent to a final concentration of 40 μM) of the 96-well assay plate. The first and last rows of the 96-well plate contained the appropriate concentration of DMSO were used as blank control. ATP was dissolved in the assay buffer to give a stock concentration of 2.5 mM and stored at room temperature. A 10 μL aliquot of ATP solution was added to each well to give a final assay concentration of 1 mM. Before the usage, Hsp90 protein was thawed on ice and suspended in chilled assay buffer to a stock concentration of 0.45 mg/mL, and the solution was kept on ice. The incubation was started by adding 10 μL of the stock Hsp90 to each well (except for the background wells which received 10 μL of assay buffer), giving a final assay volume of 25 μL. The plates were shaken for approximately 2 min and incubated for 3 h at 37°C.
The assay procedures were based on the literatures [33]–[35]. […] The reagent is initially dark brown, but on standing for ∼2 h at room temperature changes to a golden yellow and is ready for use. The assay buffer was 100 mM Tris–HCl, 20 mM KCl, 6 mM MgCl2, pH 7.4.
To stop the ATPase reactions, 80 μL of the malachite green reagent was added to each well.

Structures are written as SMILES.

T1 sequence (P0DMV8 whole entry): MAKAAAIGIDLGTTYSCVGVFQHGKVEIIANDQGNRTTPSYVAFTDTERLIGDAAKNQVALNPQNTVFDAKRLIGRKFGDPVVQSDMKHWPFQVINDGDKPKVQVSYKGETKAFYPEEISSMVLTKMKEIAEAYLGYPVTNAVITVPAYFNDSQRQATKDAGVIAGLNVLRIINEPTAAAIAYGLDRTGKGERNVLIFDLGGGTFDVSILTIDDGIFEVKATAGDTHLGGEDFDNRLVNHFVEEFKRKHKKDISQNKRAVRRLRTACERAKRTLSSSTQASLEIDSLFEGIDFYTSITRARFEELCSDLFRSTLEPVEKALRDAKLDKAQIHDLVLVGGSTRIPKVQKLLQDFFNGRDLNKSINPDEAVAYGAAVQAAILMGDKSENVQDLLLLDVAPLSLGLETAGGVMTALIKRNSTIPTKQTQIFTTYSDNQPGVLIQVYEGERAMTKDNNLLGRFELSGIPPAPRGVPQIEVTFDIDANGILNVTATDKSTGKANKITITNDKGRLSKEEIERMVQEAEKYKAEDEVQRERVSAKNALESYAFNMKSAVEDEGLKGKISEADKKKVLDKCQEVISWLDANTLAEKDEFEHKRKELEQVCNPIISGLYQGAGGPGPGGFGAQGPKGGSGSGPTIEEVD

For the compound `COc1ccccc1N1CCN(CC(O)COCCOc2ccc(Br)cc2)CC1` (stereo not shown) [Compound S13], the apoptosis-induced effects entry in assay [1] is “dose-dependent”; in assay [2] (MCF-7, 2, 5, 10 μM, 24 h), “dose-dependent”; in assay [3], “dose-dependent”. The apoptosis induced result in assay [2] (10 μM, MCF-7 cells) is given as “over 50%”. Also, the IC50 in assay [4] worked out at 3.32 µM; in [5] it was 3.63 µM; in assay [6], 96.6 µM; in assay [7], 2.01 µM; in assay [8] it was 0.83 µM; in [9], 14.6 µM. Further, the IC50 in assay [10] (ADP Hunter Plus assay) worked out at 43.8 ± 4.38 µM; in assay [11], 3.89 ± 0.54 µM. In addition, in assay [10] (ratio of IC50 HSP70 / HSP90, ADP fluorescence assay), the “selectivity HSP90 over HSP70” value is on record as “over 15 times”.
